Experimental data published in patent US20250206732A1, “COMPOUNDS AND METHODS FOR THE TARGETED DEGRADATION OF KRAS” (Arvinas Operations, Inc., priority 2022, published 2025).

Molecular target: T1, AsPC-1 HiBiT-KRASG12D (Homo sapiens, UniProt P01116, G12D)
T1 construct: insert the HiBiT tag onto the N-terminus of one or more of the endogenous KRAS alleles; endogenous in cells; host or cells: AsPC-1 (ATCC CRL-1682), CRISPR-Cas9 knock-in clone, one tagged allele
Test: HiBiT degradation assay (G12D), AsPC-1 HiBiT-KRASG12D cells
Format: cell-based
Conditions: 24 hours treatment; for Dmax: ASPC1, AsPC-1 HiBiT-KRASG12D cells, maximum degradation observed; for DC50: AsPC-1 HiBiT-KRASG12D cells, HiBiT luminescence
Outline: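 HiBiT-KRAS abundance was read as Nano-Glo HiBiT lytic luminescence (45 min, room temperature) after a PBS wash. Before that, a 4 h alamar blue fluorescence read, normalized to DMSO, monitored viability. Treatment lasted 24 hours at 37 °C, in triplicate, using AsPC-1 cells with endogenous N-terminally HiBiT-tagged KRAS G12D.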

T1 sequence (P01116 1-188 isoform P01116-2 G12D): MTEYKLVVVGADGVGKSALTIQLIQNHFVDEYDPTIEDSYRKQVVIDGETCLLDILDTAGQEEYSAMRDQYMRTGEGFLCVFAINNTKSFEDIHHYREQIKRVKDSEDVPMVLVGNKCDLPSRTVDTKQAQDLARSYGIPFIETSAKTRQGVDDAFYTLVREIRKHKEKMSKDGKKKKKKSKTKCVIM

Cc1ncsc1-c1ccc([C@H](C)NC(=O)[C@@H]2C[C@@H](O)CN2C(=O)[C@@H](c2cc(N3CCN(C(=O)OC[C@@H]4CC[C@@]5(COc6nc(N7CC8CCC(C7)N8)c7cnc(-c8cc(O)cc(Cl)c8C(F)(F)F)c(F)c7n6)CCCN45)CC3)no2)C(C)C)cc1 (relative stereo) [Compound 257, [(3S,8R)-8-[[7-[3-chloro-5-hydroxy-2-(trifluoromethyl)phenyl]-4-(3,8-diazabicyclo[3.2.1]octan-3-yl)-8-fluoro-pyrido[4,3-d]pyrimidin-2-yl]oxymethyl]-1,2,3,5,6,7-hexahydropyrrolizin-3-yl]methyl 4-[5-[(1R)-1-[(2S,4R)-4-hydroxy-2-[[(1S)-1-[4-(4-methylthiazol-5-yl)phenyl]ethyl]carbamoyl]pyrrolidine-1-carbonyl]-2-methyl-propyl]isoxazol-3-yl]piperazine-1-carboxylate]
Dmax: 80 to 100% | DC50: < 600 nM

Cc1ncsc1-c1ccc([C@H](C)NC(=O)[C@@H]2C[C@@H](O)CN2C(=O)[C@@H](c2cc(N3CCN(C(=O)OC[C@@H]4CC[C@@]5(COc6nc(N7CC8CCC(C7)N8)c7cnc(-c8cc(O)cc(Cl)c8C8CC8)c(F)c7n6)CCCN45)CC3)no2)C(C)C)cc1 (relative stereo) [Compound 258, [(3S,8R)-8-[[7-(3-chloro-2-cyclopropyl-5-hydroxy-phenyl)-4-(3,8-diazabicyclo[3.2.1]octan-3-yl)-8-fluoro-pyrido[4,3-d]pyrimidin-2-yl]oxymethyl]-1,2,3,5,6,7-hexahydropyrrolizin-3-yl]methyl 4-[5-[(1R)-1-[(2S,4R)-4-hydroxy-2-[[(1S)-1-[4-(4-methylthiazol-5-yl)phenyl]ethyl]carbamoyl]pyrrolidine-1-carbonyl]-2-methyl-propyl]isoxazol-3-yl]piperazine-1-carboxylate]
Dmax: 80 to 100% | DC50: < 600 nM

Cc1ncsc1-c1ccc([C@H](C)NC(=O)[C@@H]2C[C@@H](O)CN2C(=O)[C@@H](c2cc(N3CCN(C(=O)OC[C@@H]4CC[C@@]5(COc6nc(N7CC8CCC(C7)N8)c7cnc(-c8cc(O)cc9cccc(Cl)c89)c(F)c7n6)CCCN45)CC3)no2)C(C)C)cc1 (relative stereo) [Compound 268, ((3S,7aR)-7a-(((4-((1R,5S)-3,8-diazabicyclo[3.2.1]octan-3-yl)-7-(8-chloro-3-hydroxynaphthalen-1-yl)-8-fluoropyrido[4,3-d]pyrimidin-2-yl)oxy)methyl)hexahydro-1H-pyrrolizin-3-yl)methyl 4-(5-((R)-1-((2S,4R)-4-hydroxy-2-(((S)-1-(4-(4-methylthiazol-5-yl)phenyl)ethyl)carbamoyl)pyrrolidin-1-yl)-3-methyl-1-oxobutan-2-yl)isoxazol-3-yl) piperazine-1-carboxylate]
Dmax: 80 to 100% | DC50: < 600 nM

Cc1ncsc1-c1ccc([C@H](C)NC(=O)[C@@H]2C[C@@H](O)CN2C(=O)[C@@H](c2cc(N3CCN(C(=O)OC[C@@H]4CC[C@@]5(COc6nc(N7CC8CCC(C7)N8)c7cnc(-c8cccc9ccc(F)c(F)c89)c(F)c7n6)CCCN45)CC3)no2)C(C)C)cc1 (relative stereo) [Compound 269, ((3S,7aR)-7a-(((4-((1R,5S)-3,8-diazabicyclo[3.2.1]octan-3-yl)-7-(7,8-difluoronaphthalen-1-yl)-8-fluoropyrido[4,3-d]pyrimidin-2-yl)oxy)methyl)hexahydro-1H-pyrrolizin-3-yl)methyl 4-(5-((R)-1-((2S,4R)-4-hydroxy-2-(((S)-1-(4-(4-methylthiazol-5-yl)phenyl)ethyl)carbamoyl)pyrrolidin-1-yl)-3-methyl-1-oxobutan-2-yl)isoxazol-3-yl) piperazine-1-carboxylate]
Dmax: 60 to 80% | DC50: < 600 nM

CCc1cccc2cc(O)cc(-c3ncc4c(N5CC6CCC(C5)N6)nc(OCCN5CCC(CN6CCN(c7cc([C@H](C(=O)N8C[C@H](O)C[C@H]8C(=O)N[C@@H](C)c8ccc(-c9scnc9C)cc8)C(C)C)on7)CC6)CC5)nc4c3F)c12 (relative stereo) [Compound 276]
Dmax: 80 to 100% | DC50: < 600 nM

CCc1cccc2cc(O)cc(-c3ncc4c(N5CCCCCC5)nc(OC[C@]56CCCN5[C@H](COC(=O)N5CCN(c7cc([C@H](C(=O)N8C[C@H](O)C[C@H]8C(=O)N[C@@H](C)c8ccc(-c9scnc9C)cc8)C(C)C)on7)CC5)CC6)nc4c3F)c12 (relative stereo) [Compound 278, [(3S,8R)-8-[[4-(azepan-1-yl)-7-(8-ethyl-3-hydroxy-1-naphthyl)-8-fluoro-pyrido[4,3-d]pyrimidin-2-yl]oxymethyl]-1,2,3,5,6,7-hexahydropyrrolizin-3-yl]methyl4-[5-[(1R)-1-[(2S,4R)-4-hydroxy-2-[[(1S)-1-[4-(4-methylthiazol-5-yl)phenyl]ethyl]carbamoyl]pyrrolidine-1-carbonyl]-2-methyl-propyl]isoxazol-3-yl]piperazine-1-carboxylate]
Dmax: 80 to 100% | DC50: < 600 nM

C#Cc1c(F)ccc2cc(O)cc(-c3ncc4c(N5CC6CCC(C5)N6)nc(OCCN5CCC(CC6CCN(c7cc([C@H](C(=O)N8C[C@H](O)C[C@H]8C(=O)N[C@@H](C)c8ccc(-c9scnc9C)cc8)C(C)C)on7)CC6)CC5)nc4c3F)c12 (relative stereo) [Compound 307, (2S,4R)-1-((R)-2-(3-(4-((1-(2-((4-((1R,5S)-3,8-diazabicyclo[3.2.1]octan-3-yl)-7-(8-ethynyl-7-fluoro-3-hydroxynaphthalen-1-yl)-8-fluoropyrido[4,3-d]pyrimidin-2-yl)oxy)ethyl)piperidin-4-yl)methyl)piperidin-1-yl)isoxazol-5-yl)-3-methylbutanoyl)-4-hydroxy-N—((S)-1-(4-(4-methylthiazol-5-yl)phenyl)ethyl)pyrrolidine-2-carboxamide]
Dmax: 80 to 100% | DC50: < 600 nM

Cc1ncsc1-c1ccc([C@H](C)NC(=O)[C@@H]2C[C@@H](O)CN2C(=O)[C@@H](c2cc(N3CCN(C(=O)OC[C@@H]4CC[C@]5(COc6nc(N7CC8CCC(C7)N8)c7cc(Cl)c(-c8cc(O)cc9ccccc89)c(F)c7n6)CCCN45)CC3)no2)C(C)C)cc1 (relative stereo) [Compound 328, [(3S,8S)-8-[[6-chloro-4-(3,8-diazabicyclo[3.2.1]octan-3-yl)-8-fluoro-7-(3-hydroxy-1-naphthyl)quinazolin-2-yl]oxymethyl]-1,2,3,5,6,7-hexahydropyrrolizin-3-yl]methyl 4-[5-[(1R)-1-[(2S,4R)-4-hydroxy-2-[[(1S)-1-[4-(4-methylthiazol-5-yl)phenyl]ethyl]carbamoyl]pyrrolidine-1-carbonyl]-2-methyl-propyl]isoxazol-3-yl]piperazine-1-carboxylate]
Dmax: 80 to 100% | DC50: < 600 nM

Cc1ncsc1-c1ccc([C@H](C)NC(=O)[C@@H]2C[C@@H](O)CN2C(=O)[C@@H](c2cc(N3CCN(C(=O)OC[C@@H]4CC[C@@]5(COc6nc(N7CC8CCC(C7)N8)c7cc(Cl)c(-c8cc(O)cc9ccccc89)c(F)c7n6)CCCN45)CC3)no2)C(C)C)cc1 (relative stereo) [Compound 330, [(3R,8S)-8-[[6-chloro-4-(3,8-diazabicyclo[3.2.1]octan-3-yl)-8-fluoro-7-(3-hydroxy-1-naphthyl)quinazolin-2-yl]oxymethyl]-1,2,3,5,6,7-hexahydropyrrolizin-3-yl]methyl 4-[5-[(1R)-1-[(2S,4R)-4-hydroxy-2-[[(1S)-1-[4-(4-methylthiazol-5-yl)phenyl]ethyl]carbamoyl]pyrrolidine-1-carbonyl]-2-methyl-propyl]isoxazol-3-yl]piperazine-1-carboxylate]
Dmax: 60 to 80% | DC50: < 600 nM
